Article PMC9065260 (Frontiers in Pharmacology, 2022)
Read-outs that look alike come from different tables or passages of the source.

Tests used:
KYSE410 cells = assay: MTT assay for cell proliferation and cytotoxicity; assay type: cell-based; details: Homo sapiens, read-out: IC50 KYSE410
Experimental: (§2) The compounds were dissolved in DMSO to make a 50 mM stock solution and were diluted to the concentration of working solutions with the complete growth medium before administration.
(§3) Cells were seeded in 96-well plates with densities of 2,200–2,500 cells/well in 100 μL. One day after seeding, the concentration of the test compounds between 0 and 50 μM, 0.1% DMSO was added to cells as control. […] After 48 h, MTT was added and incubated in the plate for 1–4 h in the incubator.

KYSE450 cells [1] = assay: MTT assay for cell proliferation and cytotoxicity; assay type: cell-based; details: Homo sapiens, read-out: IC50 KYSE450
Experimental: as §2, §3

H1650 cells = assay: MTT assay for cell proliferation and cytotoxicity; assay type: cell-based; details: Homo sapiens, read-out: IC50 H1650
Experimental: as §2, §3

KYSE70 cells = assay: MTT assay for cell proliferation and cytotoxicity; assay type: cell-based; details: Homo sapiens, read-out: IC50 KYSE70
Experimental: as §2, §3

[2] = system: human esophageal epithelial cell SHEE; assay: MTT assay, toxicity against normal cells; assay type: cell-based; details: read-out: IC50 SHEE
Experimental: Cells were seeded in 96-well plates with densities of 2,200–2,500 cells/well in 100 μL. One day after seeding, the concentration of the test compounds between 0 and 50 μM, 0.1% DMSO was added to cells as control. Approximately 2200-2500 transfected cells in 100 μL were incubated in quintuplicate in 96-well plates. After 48 h, MTT was added and incubated in the plate for 1–4 h in the incubator.

HCC827 cells = assay: MTT assay for cell proliferation and cytotoxicity; assay type: cell-based; details: Homo sapiens, 48 h, mean ± SD
Experimental: as §2, §3

KYSE450TR cells [3] = assay: MTT assay, drug-resistant cell line; assay type: cell-based, human
Experimental: as §2, §3

HCC827GR cells = assay: MTT assay, drug-resistant cell line; assay type: cell-based, human
Experimental: as §2, §3

KYSE410TR cells = assay: MTT assay, drug-resistant cell line; assay type: cell-based, human
Experimental: as §2, §3

KYSE70TR cells = assay: MTT assay, drug-resistant cell line; assay type: cell-based, human
Experimental: as §2, §3

KYSE450 cells [4] = assay: Flow cytometry detection for cell apoptosis (Annexin V/PI); assay type: cell-based, human; details: 48 h
Experimental: (§1) Cell apoptosis analysis was carried out by flow cytometry using the Annexin V/PI apoptosis methods. […] The cells were harvested and incubated with 250 μL of 1 × Annexin V binding buffer containing 5 μL of PI and 5 μL of FITC Annexin V (final concentration 1.8 μg/ml, Biolegend cat: 640945) for 15 min at room temperature in the dark. Then 200 µL of 1 × binding buffer was added for flow cytometry analysis (BD FACSCalibur™ Flow Cytometer).

KYSE450TR cells [5] = assay: as above; assay type: cell-based, human; details: 48 h
Experimental: as §1

H1650TR cells = assay: MTT assay, drug-resistant cell line; assay type: cell-based, human
Experimental: as §2, §3

[6] = NCI-H1650, MTT, 48 h, mean ± SD
[7] = MTT, normal human esophageal epithelial cells, mean ± SD

SMILES	IC50 (KYSE410 cells; KYSE-410, MTT, 48 h, mean ± SD) [µM]	IC50 (KYSE450 cells [1]; KYSE-450, MTT, 48 h, mean ± SD) [µM]	melting point [°C]	IC50 (H1650 cells; [6]) [µM]	IC50 (KYSE70 cells; KYSE-70, MTT, 48 h, mean ± SD) [µM]	IC50 [2, 7] [µM]	IC50 (HCC827 cells) [µM]	other results
COCCOc1cc2ncnc(Nc3cccc(-c4cn(Cc5ccccc5)nn4)c3)c2cc1OCCOC [Compound 3a, {3-[1-Benzyl-1H-(1,2,3)Triazol-4-yl]-Phenyl}-[6,7-Bis-(2-Methoxy-Ethoxy)-Quinazolin-4-yl]-Amine]	9.7 ± 0.75	5.27 ± 0.31	89 to 92	34 ± 2.77	5.85 ± 0.28	> 50	> 50	
C#Cc1cccc(Nc2ncnc3cc(OCCOC)c(OCCOC)cc23)c1 [Erlotinib]								IC50 (KYSE450TR cells [3]; Homo sapiens, read-out: IC50 KYSE450TR, MTT, paclitaxel-resistant esophageal cancer cell line): > 10 µM; IC50 (KYSE450TR cells [3]; read-out: IC50 KYSE450TR, MTT, paclitaxel-resistant esophageal cancer cell line): > 20 µM; IC50 (HCC827GR cells; Homo sapiens, read-out: IC50 HCC827GR, MTT, gefitinib-resistant lung cancer cell line): > 10 µM; IC50 (HCC827GR cells; read-out: IC50 HCC827GR, MTT, gefitinib-resistant lung cancer cell line): > 20 µM; IC50 (KYSE410TR cells; Homo sapiens, read-out: IC50 KYSE410TR, MTT, paclitaxel-resistant esophageal cancer cell line): > 10 µM; IC50 (KYSE410TR cells; read-out: IC50 KYSE410TR, MTT, paclitaxel-resistant esophageal cancer cell line): > 20 µM; IC50 (KYSE70TR cells; Homo sapiens, read-out: IC50 KYSE70TR, MTT, paclitaxel-resistant esophageal cancer cell line): > 10 µM; IC50 (KYSE70TR cells; read-out: IC50 KYSE70TR, MTT, paclitaxel-resistant esophageal cancer cell line): > 20 µM; IC50 (KYSE410 cells; KYSE-410, 48 h): 5 ± 0.46 µM; IC50 (KYSE450 cells [1]; KYSE-450, 48 h): 7.6 ± 0.51 µM; proportion of apoptotic cells (KYSE450 cells [4]; KYSE450, 5 μM): 7.04%; proportion of apoptotic cells (KYSE450 cells [4]; KYSE450, 10 μM): 8.94%; proportion of apoptotic cells (KYSE450TR cells [5]; 5 μM): 10.16%; proportion of apoptotic cells (KYSE450TR cells [5]; 10 μM): 16.68%; IC50 (H1650 cells; NCI-H1650, 48 h): 14 ± 1.19 µM; IC50 (KYSE70 cells; KYSE-70, 48 h): > 50 µM; IC50 ([2]; Homo sapiens): 21 ± 2.11 µM; IC50 (H1650TR cells; Homo sapiens, read-out: IC50 H1650TR, MTT, paclitaxel-resistant lung cancer cell line): > 10 µM; IC50 (H1650TR cells; read-out: IC50 H1650TR, MTT, paclitaxel-resistant lung cancer cell line): > 20 µM
COCCOc1cc2ncnc(Nc3cccc(-c4cn(-c5ccccc5C(F)(F)F)nn4)c3)c2cc1OCCOC [Compound 3p, [6,7-Bis-(2-Methoxy-Ethoxy)-Quinazolin-4-yl]-{3-[1-(2-Trifluoromethyl-Phenyl)-1H-(1,2,3)Triazol-4-yl]-Phenyl}-Amine]	> 50	24.9 ± 2.16	113 to 116	> 50	> 50	> 50	34.7	
COCCOc1cc2ncnc(Nc3cccc(-c4cn(-c5ccc(Br)cc5)nn4)c3)c2cc1OCCOC [Compound 3j, [6,7-Bis-(2-Methoxy-Ethoxy)-Quinazolin-4-yl]-{3-[1-(4-Bromo-Phenyl)-1H-(1,2,3)Triazol-4-yl]-Phenyl}-Amine]	> 50	3.6 ± 0.27	105 to 108	4.98 ± 0.17	3.72 ± 0.33	7.2 ± 0.63	6.27 ± 0.42	
COCCOc1cc2ncnc(Nc3cccc(-c4cn(-c5ccc(C)cc5O)nn4)c3)c2cc1OCCOC [Compound 3r, 2-(4-{3-[6,7-Bis-(2-Methoxy-Ethoxy)-Quinazolin-4-Ylamino]-Phenyl}-(1,2,3)Triazol-1-yl)-5-Methyl-Phenol]	8.74 ± 0.74	8.2 ± 0.67	100 to 103	4.32 ± 0.27	5.85 ± 0.52	> 50	12.4 ± 1.07	
COCCOc1cc2ncnc(Nc3cccc(-c4cn(Cc5ccccc5Br)nn4)c3)c2cc1OCCOC [Compound 3c, [6,7-Bis-(2-Methoxy-Ethoxy)-Quinazolin-4-yl]-{3-[1-(2-Bromo-Benzyl)-1H-(1,2,3)Triazol-4-yl]-Phenyl}-Amine]	> 50	5.47 ± 0.29	94 to 97	5.72 ± 0.33	5.35 ± 0.34	22.4 ± 2.53	> 50	
COCCOc1cc2ncnc(Nc3cccc(-c4cn(-c5ccc(OC)cc5OC)nn4)c3)c2cc1OCCOC [Compound 3q, [6,7-Bis-(2-Methoxy-Ethoxy)-Quinazolin-4-yl]-{3-[1-(2,4-Dimethoxy-Phenyl)-1H-(1,2,3)Triazol-4-yl]-Phenyl}-Amine]	12.3 ± 0.93	> 50	85 to 88	> 50	> 50	28.1 ± 2.47	> 50	
COCCOc1cc2ncnc(Nc3cccc(-c4cn(-c5ccc(C)cc5)nn4)c3)c2cc1OCCOC [Compound 3l, [6,7-Bis-(2-Methoxy-Ethoxy)-Quinazolin-4-yl]-[3-(1-p-Tolyl-1H-(1,2,3)Triazol-4-yl)-Phenyl]-Amine]	> 50	> 50	95 to 98	10 ± 0.79	11.1 ± 0.94	4.82 ± 0.32	4.61 ± 0.28	
CCOc1cccc(-n2cc(-c3cccc(Nc4ncnc5cc(OCCOC)c(OCCOC)cc45)c3)nn2)c1 [Compound 3n, [6,7-Bis-(2-Methoxy-Ethoxy)-Quinazolin-4-yl]-{3-[1-(3-Ethoxy-Phenyl)-1H-(1,2,3)Triazol-4-yl]-Phenyl}-Amine]	49.7 ± 4.57	12.8 ± 1.25	110 to 114	35.4 ± 3.46	> 50	22.6 ± 2.31	13.7 ± 1.34	
COCCOc1cc2ncnc(Nc3cccc(-c4cn(-c5ccccc5Cl)nn4)c3)c2cc1OCCOC [Compound 3h, [6,7-Bis-(2-Methoxy-Ethoxy)-Quinazolin-4-yl]-{3-[1-(2-Chloro-Phenyl)-1H-(1,2,3)Triazol-4-yl]-Phenyl}-Amine]	> 50	> 50	131 to 134	> 50	> 50	6.03 ± 0.57	> 50	
COCCOc1cc2ncnc(Nc3cccc(-c4cn(-c5ccccc5F)nn4)c3)c2cc1OCCOC [Compound 3f, [6,7-Bis-(2-Methoxy-Ethoxy)-Quinazolin-4-yl]-{3-[1-(2-Fluoro-Phenyl)-1H-(1,2,3)Triazol-4-yl]-Phenyl}-Amine]	> 50	34.2 ± 3.01	83 to 86	> 50	> 50	12.1 ± 1.33	17.8 ± 1.61	
COCCOc1cc2ncnc(Nc3cccc(-c4cn(CCc5ccccc5)nn4)c3)c2cc1OCCOC [Compound 3s, [6,7-Bis-(2-Methoxy-Ethoxy)-Quinazolin-4-yl]-{3-[1-Phenethyl-1H-(1,2,3)Triazol-4-yl]-Phenyl}-Amine]	> 50	> 50	109 to 112	> 50	> 50	33.3 ± 3.43	> 50	
